According to PMC7576480, “Hydroxy-Propil-β-Cyclodextrin Inclusion Complexes of two Biphenylnicotinamide Derivatives: Formulation and Anti-Proliferative Activity Evaluation in Pancreatic Cancer Cell Models” (International Journal of Molecular Sciences, 2020):
Like-named read-outs stand apart in the source and are kept apart here.

Tests used:
MIA PaCa-2 cells [1] = system: MIA PaCa-2 cells; parameters: method as in PMID 30583077; settings: low doses; cited from earlier work
[2] = Phase-solubility study (Higuchi–Connors), apparent 1:1 stability constant with HP-β-CD; type: physicochemical; settings: complex with HP-β-CD, from the phase solubility diagram, 37 ± 0.5 °C
Protocol: (§1) The phase solubility study was conducted according with Higuchi and Connors. In detail, an excess of PTA34 or PTA73 was added to 1 mL of solutions containing HP-β-CD in the appropriate concentration (0–45% w/v) in 4 mL vials, with screw caps to avoid evaporation. The obtained mixtures were vigorously vortexed for about 5 min, and the suspensions thus obtained were placed under constant stirring in a thermostat bath at 37 ± 0.5 °C for about 48 h, until the saturation of the system was achieved. Then, each suspension was centrifuged at 13,200 rpm (MIKRO 22 R, Hettich Zentrifugen, Germany) in order to remove the uncomplexed drug and the supernatant was analyzed by spectrophotometry for the quantification of the drug, after appropriate dilution. All determinations were conducted at least in triplicate. The obtained data were used to determine the apparent stability 1:1 constant (K1:1) of the HP-β-CD inclusion complexes with the biphenylnicotinamide derivatives, using the Higuchi and Connors equation: K1:1=slope/S0(1−slope) where slope is the slope of the obtained phase solubility diagrams straight line, and S0 represents PTA34 or PTA73 intrinsic solubility determined in the same way.

Panc-1 cells [3] = assay: Cell cycle analysis by flow cytometry (PI staining); type: cell-based, human; settings: PANC-1, 1 µM in terms of PTA, 24 h
Protocol: (§2) For the cell cycle analysis, human pancreatic cancer cells were seeded in 60 mm dishes at a density of 500,000/well and incubated for 24 h at 37 °C, with PTA34, PTA73 both complexed and not at concentration 1 µM in terms of PTA’s, and with cyclodextrin alone at concentration equal to 290 µg/mL. Cells were then harvested, washed twice in ice-cold PBS pH 7.4, fixed in 4 mL of 70% ethanol, and stored at -20 °C until analysis. The cell cycle modulation induced by treatments was studied as previously described by propidium iodide (PI) staining; the pellet was resuspended in PBS without Ca^2+ and Mg^2+, containing 1 mg/mL RNase, 0.01% NP40, and 50 ĉg/mL PI (Sigma), and then flow cytometry analysis was performed on Attune NxT acoustic focusing cytometer (Life Technologies). Data were interpreted using the CytExpert software v.1.2, provided by the manufacturer.

AsPC-1 cells [4] = assay: as above; type: cell-based, human; settings: AsPC-1, 1 µM in terms of PTA, 24 h
Protocol: as §2

MIA PaCa-2 cells [5] = assay: as above; type: cell-based, human; settings: MIA PaCa-2, 1 µM in terms of PTA, 24 h
Protocol: as §2

[6] = Solubility in ultra-pure water and in HP-β-CD solutions at 37 °C; type: physicochemical; settings: for solubility: 37 °C, thermodynamic from solid, ultra-pure water, 37 ± 0.5 °C; for Increase in aqueous solubility: HP-β-CD 45% w/v versus water alone
Protocol: Quantitative analysis of PTA34 and PTA73 was carried out by spectrophotometry using a dual-beam UV-VIS Lambda 20 Bio spectrophotometer (Perkin Elmer, Milan, Italy) and quartz cuvettes, with a capacity of 1 mL, using methanol as solvent. In the case of PTA34 the reading was carried out at a wavelength of 320 nm, and a calibration straight line (r^2 = 0.9979), in the concentration range between 0.15 mg/mL (4.45 × 10^−4 mM) and 0.015 mg/mL (4.45 × 10^−5 mM), was obtained. For PTA73 the reading was carried out at a wavelength of 340 nm, and a calibration straight line (r^2 = 0.9999) in the concentration range between 0.16 mg/mL (5.01 × 10^−4 mM) and 0.016 mg/mL (5.01 × 10^−5 mM), was obtained.
as §1

Panc-1 cells [7] = assay: MTT cell proliferation assay; type: cell-based; settings: Homo sapiens, Panc-1, 72 h, concentration in terms of PTA, ± SD
Protocol: (§3) Human pancreatic ductal adenocarcinoma (PDAC) PANC-1 cells, human pancreas adenocarcinoma ascites metastasis cells AsPC-1, and undifferentiated human pancreatic carcinoma MIAPaCa-2 cells, were purchased from ATCC®. PANC-1 and AsPC-1 cells were cultured in Dulbecco’s modified Eagle’s medium (DMEM), supplemented with fetal bovine serum (FBS), to a final concentration of 10%, L-glutamine 1% (v/v), and penicillin/streptomycin 1% (v/v). MIA PaCa-2 cells were grown in Roswell Park Memorial Institute (RPMI) medium, supplemented as above, and in addition with horse serum, to a final concentration of 2.5%. Cells were maintained in a humid atmosphere of 95% air and 5% CO2 at 37 °C. All materials for cell culturing were purchased from EuroClone (Pero, Milan, Italy).
(§4) The 3-(4,5-dimethylthiazol-2-yl)-2,5- diphenyltetrazoliumbromide (MTT) assay was performed as previously described to investigate the effect of hydroxy-propil-β-cyclodextrin-complexed PTA34 and PTA73 (PTA34/HP-β-CD and PTA73/HP-β-CD, respectively) on cell viability of PANC-1, AsPC-1, and MIA PaCa-2 cell lines. The same uncomplexed compounds and HP-β-CD alone were also tested as reference compounds. Untreated cells were used as a […]. In particular, cells were seeded in 96 well plates at a density of 5000 cells/well, incubated for 24 h in culturing medium, and subsequently treated for 72 h, with compounds at 0.01–10 µM concentrations range, in terms of PTA34 or PTA73, included. HP-β-CD–cyclodextrin alone was tested in the concentrations range corresponding to that present in the complex, namely 2.9–2900 µg/mL. After the incubation period 10 µL of a 0.5% (w/v) MTT/PBS solution were added to each well, and the incubation was prolonged further for 2 h. After this period, medium was removed and replaced with 100 µL of DMSO. The absorbance in each well was measured by a microplate reader (MULTISKAN Sky, ThermoScientific). The results are shown as dose/effect plots of the mean of three different experiments. The IC50 was defined as the drug concentration yielding a fraction of affected (no surviving) cells = 0.5, normalized with untreated cells, and was calculated utilizing CalcuSyn v.1.1.1 software (Biosoft, UK).

AsPC-1 cells [8] = assay: MTT cell proliferation assay; type: cell-based; settings: Homo sapiens, ASPC1, AsPC-1, 72 h, concentration in terms of PTA, ± SD
Protocol: as §3, §4

MIA PaCa-2 cells [9] = assay: MTT cell proliferation assay; type: cell-based; settings: Homo sapiens, MIA PaCa-2, 72 h, concentration in terms of PTA, ± SD
Protocol: as §3, §4

[10] = HP-β-CD 0% w/v, read-out: Water solubility (intrinsic solubility, S0)
[11] = read-out: Intrinsic solubility (S0)

SMILES	Antitumor activity (MIA PaCa-2 cells [1])	1:1 apparent formation (equilibrium) constant, Ks [2]	Cells arrested in G2/M phase (Panc-1 cells [3])	Cells arrested in G2/M phase (AsPC-1 cells [4])	Cells arrested in G2/M phase (MIA PaCa-2 cells [5])	solubility [6, 10]	solubility [6, 11]	Increase in aqueous solubility [6]	IC50 (Panc-1 cells [7])	IC50 (AsPC-1 cells [8])	IC50 (MIA PaCa-2 cells [9])
O=C(Nc1ccc(-c2ccc(F)cc2)cc1[N+](=O)[O-])c1cccnc1 [PTA34]	remarkable antitumor activity	503.9 M⁻¹	57.9%	93%	36.7%	1.95 ± 0.35 µg/mL	5.78 µM	about 150 times	2500 ± 500 nM	1900 ± 300 nM	310 ± 40 nM
O=C(Nc1ccc(-c2ccccc2)cc1[N+](=O)[O-])c1cccnc1 [PTA73]	remarkable antitumor activity	369.2 M⁻¹	64.9%	94.1%	45.2%	7.16 ± 0.34 µg/mL	22.4 µM	~106 times	1500 ± 200 nM	2300 ± 600 nM	6 ± 2 nM
